Our source for the solubility values is patent CN104497008A, “取代噁唑烷酮类化合物及其使用方法和用途” (priority 2014, dated 2015).

The structures appear in SMILES notation. In brackets after ≈: the same amount, converted by molar mass.

The nature of the series: Solubility test of the compounds. The class given is physicochemical. The conditions noted are these: water, 37 ℃, 24 h shaking, 40 rpm, HPLC; read-out: compound solubility.
Take `NC(=O)N1CCc2sc(N3C[C@H](CNC(=O)c4ccc(Cl)s4)OC3=O)cc2C1` [实施例1, (S)-2-(5-((5-氯噻吩-2-甲酰氨基)甲基)-2-氧代噁唑烷-3-基)-6,7-二氢噻吩并[3,2-c]吡啶-5(4H)-甲酰胺]: the solubility at 24 h is 240 µg/mL (≈ 544 µM). The value for `CC(=O)N1CCc2sc(N3C[C@H](CNC(=O)c4ccc(Cl)s4)OC3=O)cc2C1` [实施例2, (S)-N-((3-(5-乙酰基-4,5,6,7-四氢噻吩并[3,2-c]吡啶-2-基)-2-氧代噁唑烷-5-基)甲基)-5-氯噻吩-2-甲酰胺] was 110 µg/mL (≈ 250 µM); that for `NC(=O)N1CCc2cc(N3C[C@H](CNC(=O)c4ccc(Cl)s4)OC3=O)sc2C1` [实施例3, (S)-2-(5-((5-氯噻吩-2-甲酰氨基)甲基)-2-氧代噁唑烷-3-基)-4,5-二氢噻吩并[2,3-c]吡啶-6(7H)-甲酰胺] was 260 µg/mL (≈ 590 µM); that for `CC(=O)N1CCc2cc(N3C[C@H](CNC(=O)c4ccc(Cl)s4)OC3=O)sc2C1` [实施例4, (S)-N-((3-(6-乙酰基-4,5,6,7-四氢噻吩并[2,3-c]吡啶-2-基)-2-氧代噁唑烷-5-基)甲基)-5-氯噻吩-2-甲酰胺] was 130 µg/mL (≈ 295 µM). On to `CN1CCc2nc(N3C[C@H](CNC(=O)c4ccc(Cl)s4)OC3=O)sc2C1` [实施例5, (S)-5-氯-N-((3-(5-甲基-4,5,6,7-四氢噻唑[5,4-c]吡啶-2-基)-2-氧代噁唑烷-5-基)甲基)噻吩-2-甲酰胺], for which the solubility at 24 h was found to be 230 µg/mL (≈ 557 µM).

In the case of `CN1CCc2cc(N3C[C@H](CNC(=O)c4ccc(Cl)s4)OC3=O)sc2C1` [实施例6], the solubility at 24 h turned out to be 220 µg/mL (≈ 534 µM). The value for `O=C(NC[C@H]1CN(c2sc3ccccc3c2Cl)C(=O)O1)c1ccc(Cl)s1` [实施例7, (S)-5-氯-N-((3-(3-氯苯并[b]噻吩-2-基)-2-氧代噁唑烷-5-基)甲基)噻吩-2-甲酰胺] was 80 µg/mL (≈ 187 µM); that for `CN1CCc2nc(C(=O)NCC3COC(=O)N3C(=O)Nc3ccc(Cl)cn3)sc2C1` (centres unmarked) [实施例8, N-(5-氯吡啶-2-基)-4-((5-甲基-4,5,6,7-四氢噻唑并[5,4-c]吡啶-2-甲酰氨基)甲基)-2-氧代噁唑烷-3-甲酰胺] was 150 µg/mL (≈ 333 µM).
